{
  "source": "ChEMBL document CHEMBL5678810",
  "key": {"[1]": {"molecular_target": "Serine/threonine-protein kinase Nek7 (Homo sapiens) (UniProt Q8TDX7)", "assay": "Inhibition of T7 bacteriophage fused human NEK7 at 10 uM by KINOMEscan analysis relative to control"}, "[2]": {"tested_on": "Receptor-type tyrosine-protein kinase FLT3 (Homo sapiens), P36888 [R834Q]", "assay": "Inhibition of T7 bacteriophage fused human FLT3 R834Q mutant at 10 uM by KINOMEscan analysis relative to control"}, "[3]": {"molecular_target": "Serine/threonine-protein kinase N2 (Homo sapiens) (UniProt Q16513)", "assay": "Inhibition of T7 bacteriophage fused human PKN2 at 10 uM by KINOMEscan analysis relative to control"}, "[4]": {"molecular_target": "Serine/threonine-protein kinase SBK1 (Homo sapiens) (UniProt Q52WX2)", "sequence (Q52WX2 whole entry, the tested form may be a part)": "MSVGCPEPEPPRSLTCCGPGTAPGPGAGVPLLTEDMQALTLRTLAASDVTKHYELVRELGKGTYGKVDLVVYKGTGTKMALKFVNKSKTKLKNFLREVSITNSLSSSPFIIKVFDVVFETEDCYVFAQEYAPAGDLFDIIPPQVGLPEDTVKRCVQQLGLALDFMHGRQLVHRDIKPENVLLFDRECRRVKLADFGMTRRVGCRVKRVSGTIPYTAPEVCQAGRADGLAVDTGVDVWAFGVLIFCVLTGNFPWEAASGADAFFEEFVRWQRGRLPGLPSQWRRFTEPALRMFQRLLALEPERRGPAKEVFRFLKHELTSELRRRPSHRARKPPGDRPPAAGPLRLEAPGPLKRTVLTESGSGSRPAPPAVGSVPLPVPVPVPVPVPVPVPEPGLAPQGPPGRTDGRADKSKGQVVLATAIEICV", "assay": "Inhibition of T7 bacteriophage fused human SBK1 at 10 uM by KINOMEscan analysis relative to control"}, "[5]": {"molecular_target": "Mitogen-activated protein kinase 3 (Homo sapiens) (UniProt P27361)", "assay": "Inhibition of T7 bacteriophage fused human ERK1 at 10 uM by KINOMEscan analysis relative to control"}, "[6]": {"molecular_target": "Dual specificity mitogen-activated protein kinase kinase 3 (Homo sapiens) (UniProt P46734)", "assay": "Inhibition of T7 bacteriophage fused human MEK3 at 10 uM by KINOMEscan analysis relative to control; values are per cent of control"}, "[7]": {"molecular_target": "Cyclin-dependent kinase-like 1 (Homo sapiens) (UniProt Q00532)", "sequence (Q00532 whole entry, the tested form may be a part)": "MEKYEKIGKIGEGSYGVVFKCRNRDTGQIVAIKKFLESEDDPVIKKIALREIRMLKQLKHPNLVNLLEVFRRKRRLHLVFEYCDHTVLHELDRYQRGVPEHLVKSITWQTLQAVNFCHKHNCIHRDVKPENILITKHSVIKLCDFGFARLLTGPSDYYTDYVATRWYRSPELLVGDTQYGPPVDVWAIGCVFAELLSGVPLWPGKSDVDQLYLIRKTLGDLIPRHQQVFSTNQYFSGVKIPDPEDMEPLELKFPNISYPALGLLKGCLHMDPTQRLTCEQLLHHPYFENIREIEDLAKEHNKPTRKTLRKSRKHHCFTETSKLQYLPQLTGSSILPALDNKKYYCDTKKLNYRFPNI", "assay": "Inhibition of T7 bacteriophage fused human CDKL1 at 10 uM by KINOMEscan analysis relative to control"}, "[8]": {"molecular_target": "Casein kinase I isoform delta (Homo sapiens) (UniProt P48730)", "assay": "Inhibition of T7 bacteriophage fused human CSNK1D at 10 uM by KINOMEscan analysis relative to control; values are per cent of control"}, "[9]": {"molecular_target": "Ribosomal protein S6 kinase alpha-1 (Homo sapiens) (UniProt Q15418)", "assay": "Inhibition of T7 bacteriophage fused human C-terminal RSK1 Kinase domain-2 at 10 uM by KINOMEscan analysis relative to control"}, "[10]": {"tested_on": "Epidermal growth factor receptor (Homo sapiens), P00533 [T790M]", "assay": "Inhibition of T7 bacteriophage fused human EGFR T790M mutant at 10 uM by KINOMEscan analysis relative to control; values are per cent of control"}, "[11]": {"molecular_target": "Insulin-like growth factor 1 receptor (Homo sapiens) (UniProt P08069)", "sequence (P08069 31-736 limits assumed)": "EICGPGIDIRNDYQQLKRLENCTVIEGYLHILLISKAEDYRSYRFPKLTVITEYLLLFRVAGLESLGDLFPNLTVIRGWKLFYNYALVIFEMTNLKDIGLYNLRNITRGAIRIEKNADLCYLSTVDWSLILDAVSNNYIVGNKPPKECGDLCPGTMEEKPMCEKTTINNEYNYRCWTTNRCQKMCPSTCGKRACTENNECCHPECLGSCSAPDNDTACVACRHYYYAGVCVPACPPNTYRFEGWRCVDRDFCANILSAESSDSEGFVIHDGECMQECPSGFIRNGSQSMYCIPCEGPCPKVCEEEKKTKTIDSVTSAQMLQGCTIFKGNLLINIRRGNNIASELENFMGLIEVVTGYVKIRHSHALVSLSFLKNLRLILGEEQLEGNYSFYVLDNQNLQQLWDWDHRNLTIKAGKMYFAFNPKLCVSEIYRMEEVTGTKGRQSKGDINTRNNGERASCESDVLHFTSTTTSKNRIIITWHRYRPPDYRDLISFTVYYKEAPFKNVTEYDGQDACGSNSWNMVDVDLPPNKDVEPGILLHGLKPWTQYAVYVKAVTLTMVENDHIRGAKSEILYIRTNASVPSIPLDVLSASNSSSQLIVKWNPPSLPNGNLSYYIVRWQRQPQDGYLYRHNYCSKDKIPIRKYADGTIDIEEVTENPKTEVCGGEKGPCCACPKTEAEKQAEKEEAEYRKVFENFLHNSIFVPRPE", "sequence (P08069 741-1367 limits assumed)": "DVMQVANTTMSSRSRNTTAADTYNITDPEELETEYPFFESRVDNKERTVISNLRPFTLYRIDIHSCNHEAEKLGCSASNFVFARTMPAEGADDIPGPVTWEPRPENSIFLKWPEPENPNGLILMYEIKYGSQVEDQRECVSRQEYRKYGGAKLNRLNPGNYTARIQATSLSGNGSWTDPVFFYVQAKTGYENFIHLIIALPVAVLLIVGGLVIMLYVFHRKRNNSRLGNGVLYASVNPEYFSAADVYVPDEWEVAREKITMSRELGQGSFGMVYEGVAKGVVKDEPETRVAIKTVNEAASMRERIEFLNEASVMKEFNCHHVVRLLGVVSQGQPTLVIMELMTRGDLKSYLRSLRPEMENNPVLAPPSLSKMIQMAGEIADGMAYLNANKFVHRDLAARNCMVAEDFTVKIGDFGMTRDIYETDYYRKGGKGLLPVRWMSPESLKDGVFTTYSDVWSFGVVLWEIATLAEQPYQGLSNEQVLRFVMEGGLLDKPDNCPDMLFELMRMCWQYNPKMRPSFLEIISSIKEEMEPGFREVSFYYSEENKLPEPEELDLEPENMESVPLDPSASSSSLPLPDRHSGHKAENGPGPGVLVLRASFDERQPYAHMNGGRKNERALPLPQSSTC", "assay": "Inhibition of T7 bacteriophage fused human IGF1R at 10 uM by KINOMEscan analysis relative to control; values are per cent of control"}, "[12]": {"molecular_target": "Insulin receptor (Homo sapiens) (UniProt P06213)", "assay": "Inhibition of T7 bacteriophage fused human INSR at 10 uM by KINOMEscan analysis relative to control; values are per cent of control"}, "[13]": {"molecular_target": "Receptor tyrosine-protein kinase erbB-2 (Homo sapiens) (UniProt P04626)", "sequence (P04626 whole entry, the tested form may be a part)": "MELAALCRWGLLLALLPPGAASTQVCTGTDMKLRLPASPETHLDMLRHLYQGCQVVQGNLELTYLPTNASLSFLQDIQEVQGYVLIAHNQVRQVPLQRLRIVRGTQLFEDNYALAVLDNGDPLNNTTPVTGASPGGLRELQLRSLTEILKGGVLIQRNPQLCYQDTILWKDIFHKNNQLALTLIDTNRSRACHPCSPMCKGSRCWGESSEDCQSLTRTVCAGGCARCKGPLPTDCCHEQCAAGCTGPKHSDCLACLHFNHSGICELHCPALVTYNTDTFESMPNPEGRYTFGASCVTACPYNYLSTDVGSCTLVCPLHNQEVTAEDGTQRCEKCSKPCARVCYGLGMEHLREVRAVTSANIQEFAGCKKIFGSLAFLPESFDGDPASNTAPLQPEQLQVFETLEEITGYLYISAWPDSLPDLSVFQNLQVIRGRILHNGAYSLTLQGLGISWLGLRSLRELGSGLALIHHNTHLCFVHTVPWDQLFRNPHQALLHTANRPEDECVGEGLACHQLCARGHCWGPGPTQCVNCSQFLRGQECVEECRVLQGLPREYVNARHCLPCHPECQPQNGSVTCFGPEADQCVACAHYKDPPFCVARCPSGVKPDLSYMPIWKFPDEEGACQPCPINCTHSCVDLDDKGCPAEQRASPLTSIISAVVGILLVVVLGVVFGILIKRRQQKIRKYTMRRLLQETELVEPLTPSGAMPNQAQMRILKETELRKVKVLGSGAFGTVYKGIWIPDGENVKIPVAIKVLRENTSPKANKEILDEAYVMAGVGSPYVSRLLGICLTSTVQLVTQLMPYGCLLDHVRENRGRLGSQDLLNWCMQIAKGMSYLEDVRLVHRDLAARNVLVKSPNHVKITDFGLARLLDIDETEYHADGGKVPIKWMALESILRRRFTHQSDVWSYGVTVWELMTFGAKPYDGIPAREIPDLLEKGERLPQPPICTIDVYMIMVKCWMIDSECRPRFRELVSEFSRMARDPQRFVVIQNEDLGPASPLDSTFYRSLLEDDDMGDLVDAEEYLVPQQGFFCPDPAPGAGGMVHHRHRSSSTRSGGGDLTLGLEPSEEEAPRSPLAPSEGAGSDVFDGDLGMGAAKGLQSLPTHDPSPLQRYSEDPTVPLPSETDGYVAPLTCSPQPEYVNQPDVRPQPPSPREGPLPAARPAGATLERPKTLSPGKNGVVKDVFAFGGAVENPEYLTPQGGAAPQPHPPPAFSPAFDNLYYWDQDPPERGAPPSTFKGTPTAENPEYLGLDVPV", "assay": "Inhibition of T7 bacteriophage fused human ERBB2 at 10 uM by KINOMEscan analysis relative to control"}, "[14]": {"molecular_target": "Mitogen-activated protein kinase 12 (Homo sapiens) (UniProt P53778)", "sequence (P53778 whole entry, the tested form may be a part)": "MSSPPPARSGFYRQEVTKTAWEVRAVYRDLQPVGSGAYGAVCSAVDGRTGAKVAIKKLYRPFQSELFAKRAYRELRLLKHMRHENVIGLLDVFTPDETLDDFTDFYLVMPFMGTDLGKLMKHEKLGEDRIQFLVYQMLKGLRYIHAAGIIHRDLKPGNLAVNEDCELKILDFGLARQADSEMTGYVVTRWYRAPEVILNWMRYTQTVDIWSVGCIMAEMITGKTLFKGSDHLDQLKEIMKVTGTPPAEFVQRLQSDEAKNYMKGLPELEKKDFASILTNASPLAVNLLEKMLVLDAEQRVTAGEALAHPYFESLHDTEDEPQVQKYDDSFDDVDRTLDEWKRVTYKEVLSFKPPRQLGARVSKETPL", "assay": "Inhibition of T7 bacteriophage fused human p38-gamma at 10 uM by KINOMEscan analysis relative to control"}, "[15]": {"molecular_target": "Phosphatidylinositol 4,5-bisphosphate 3-kinase catalytic subunit delta isoform (Homo sapiens) (UniProt O00329)", "assay": "Inhibition of T7 bacteriophage fused human PIK3CD at 10 uM by KINOMEscan analysis relative to control"}, "[16]": {"molecular_target": "Serine/threonine-protein kinase 10 (Homo sapiens) (UniProt O94804)", "assay": "Inhibition of T7 bacteriophage fused human LOK at 10 uM by KINOMEscan analysis relative to control"}, "[17]": {"molecular_target": "Serine/threonine-protein kinase RIO2 (Homo sapiens) (UniProt Q9BVS4)", "assay": "Inhibition of T7 bacteriophage fused human RIOK2 at 10 uM by KINOMEscan analysis relative to control"}, "[18]": {"molecular_target": "Serine/threonine-protein kinase TNNI3K (Homo sapiens) (UniProt Q59H18)", "assay": "Inhibition of T7 bacteriophage fused human TNNI3K at 10 uM by KINOMEscan analysis relative to control"}, "[19]": {"molecular_target": "Rhodopsin kinase GRK7 (Homo sapiens) (UniProt Q8WTQ7)", "assay": "Inhibition of T7 bacteriophage fused human GRK7 at 10 uM by KINOMEscan analysis relative to control"}, "[20]": {"molecular_target": "RAC-gamma serine/threonine-protein kinase (Homo sapiens) (UniProt Q9Y243)", "assay": "Inhibition of T7 bacteriophage fused human AKT3 at 10 uM by KINOMEscan analysis relative to control"}, "[21]": {"molecular_target": "Tyrosine-protein kinase JAK3 (Homo sapiens) (UniProt P52333)", "assay": "Inhibition of T7 bacteriophage fused human JAK3 JH1catalytic domain at 10 uM by KINOMEscan analysis relative to control"}, "[22]": {"molecular_target": "AP2-associated protein kinase 1 (Homo sapiens) (UniProt Q2M2I8)", "assay": "Inhibition of T7 bacteriophage fused human AAK1 at 10 uM by KINOMEscan analysis relative to control"}, "[23]": {"molecular_target": "MAP kinase-interacting serine/threonine-protein kinase 1 (Homo sapiens) (UniProt Q9BUB5)", "assay": "Inhibition of T7 bacteriophage fused human MKNK1 at 10 uM by KINOMEscan analysis relative to control; values are per cent of control"}, "[24]": {"tested_on": "Epidermal growth factor receptor (Homo sapiens), P00533 [UNDEFINED MUTATION]", "sequence (P00533 whole entry, looked up, stated change not applied, the tested form may be a part)": "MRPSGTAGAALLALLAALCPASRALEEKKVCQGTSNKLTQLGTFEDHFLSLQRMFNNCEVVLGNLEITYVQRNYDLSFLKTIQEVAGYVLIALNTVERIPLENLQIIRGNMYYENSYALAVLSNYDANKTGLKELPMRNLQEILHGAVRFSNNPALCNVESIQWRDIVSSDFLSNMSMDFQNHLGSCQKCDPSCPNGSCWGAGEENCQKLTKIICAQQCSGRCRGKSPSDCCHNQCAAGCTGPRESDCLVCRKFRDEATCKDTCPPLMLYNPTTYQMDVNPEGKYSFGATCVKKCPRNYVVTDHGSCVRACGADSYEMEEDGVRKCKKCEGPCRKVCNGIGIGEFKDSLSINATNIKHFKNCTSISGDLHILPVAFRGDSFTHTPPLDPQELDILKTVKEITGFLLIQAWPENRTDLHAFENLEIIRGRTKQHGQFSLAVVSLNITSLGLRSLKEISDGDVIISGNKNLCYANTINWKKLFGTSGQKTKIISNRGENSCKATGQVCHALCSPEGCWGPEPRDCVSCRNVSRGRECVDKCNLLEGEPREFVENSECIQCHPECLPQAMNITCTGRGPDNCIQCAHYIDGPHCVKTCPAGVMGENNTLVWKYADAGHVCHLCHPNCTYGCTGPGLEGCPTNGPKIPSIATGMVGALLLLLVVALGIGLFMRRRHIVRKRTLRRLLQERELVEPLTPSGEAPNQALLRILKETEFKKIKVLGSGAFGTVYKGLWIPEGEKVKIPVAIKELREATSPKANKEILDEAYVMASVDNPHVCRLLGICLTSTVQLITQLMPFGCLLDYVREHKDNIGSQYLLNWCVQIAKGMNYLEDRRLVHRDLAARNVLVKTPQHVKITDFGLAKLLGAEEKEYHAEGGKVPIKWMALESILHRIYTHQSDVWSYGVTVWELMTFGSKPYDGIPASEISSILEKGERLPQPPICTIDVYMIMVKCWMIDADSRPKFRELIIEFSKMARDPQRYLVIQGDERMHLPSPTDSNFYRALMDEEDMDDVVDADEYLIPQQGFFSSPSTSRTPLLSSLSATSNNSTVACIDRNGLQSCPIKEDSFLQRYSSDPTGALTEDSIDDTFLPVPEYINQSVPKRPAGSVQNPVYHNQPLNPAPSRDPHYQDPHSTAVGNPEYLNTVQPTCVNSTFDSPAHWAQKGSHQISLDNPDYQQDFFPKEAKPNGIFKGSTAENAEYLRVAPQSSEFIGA", "assay": "Inhibition of T7 bacteriophage fused human EGFR L747/S752del/P753S mutant at 10 uM by KINOMEscan analysis relative to control; values are per cent of control"}, "[25]": {"tested_on": "Epidermal growth factor receptor (Homo sapiens), P00533 [UNDEFINED MUTATION]", "assay": "Inhibition of T7 bacteriophage fused human EGFR E746/A750del mutant at 10 uM by KINOMEscan analysis relative to control; values are per cent of control"}, "[26]": {"molecular_target": "Mitogen-activated protein kinase 6 (Homo sapiens) (UniProt Q16659)", "assay": "Inhibition of T7 bacteriophage fused human ERK3 at 10 uM by KINOMEscan analysis relative to control"}, "[27]": {"molecular_target": "Serine/threonine-protein kinase PAK 4 (Homo sapiens) (UniProt O96013)", "assay": "Inhibition of T7 bacteriophage fused human PAK4 at 10 uM by KINOMEscan analysis relative to control"}, "[28]": {"molecular_target": "Death-associated protein kinase 2 (Homo sapiens) (UniProt Q9UIK4)", "assay": "Inhibition of T7 bacteriophage fused human DAPK2 at 10 uM by KINOMEscan analysis relative to control; values are per cent of control"}, "[29]": {"tested_on": "Receptor-type tyrosine-protein kinase FLT3 (Homo sapiens), P36888 [N841I]", "assay": "Inhibition of T7 bacteriophage fused human FLT3 N841I mutant at 10 uM by KINOMEscan analysis relative to control; values are per cent of control"}},
  "data": [
    {"smiles": "COc1cc(N2CCC(N3CCN(C)CC3)CC2)ccc1Nc1ncc2c(n1)N(C)c1ccccc1C(=O)N2C", "values": [
      {"measurement": "inhibition", "setting": "[1]", "result": 100, "unit": "%"},
      {"measurement": "inhibition", "setting": "[2]", "result": 100, "unit": "%"},
      {"measurement": "inhibition", "setting": "[3]", "result": 95, "unit": "%"},
      {"measurement": "inhibition", "setting": "[4]", "result": 100, "unit": "%"},
      {"measurement": "inhibition", "setting": "[5]", "result": 100, "unit": "%"},
      {"measurement": "residual activity", "setting": "[6]", "result": 75, "unit": "%"},
      {"measurement": "inhibition", "setting": "[7]", "result": 78, "unit": "%"},
      {"measurement": "residual activity", "setting": "[8]", "result": 81, "unit": "%"},
      {"measurement": "inhibition", "setting": "[9]", "result": 10, "unit": "%"},
      {"measurement": "residual activity", "setting": "[10]", "result": 88, "unit": "%"},
      {"measurement": "residual activity", "setting": "[11]", "result": 96, "unit": "%"},
      {"measurement": "residual activity", "setting": "[12]", "result": 84, "unit": "%"},
      {"measurement": "inhibition", "setting": "[13]", "result": 100, "unit": "%"},
      {"measurement": "inhibition", "setting": "[14]", "result": 76, "unit": "%"},
      {"measurement": "inhibition", "setting": "[15]", "result": 62, "unit": "%"},
      {"measurement": "inhibition", "setting": "[16]", "result": 100, "unit": "%"},
      {"measurement": "inhibition", "setting": "[17]", "result": 100, "unit": "%"},
      {"measurement": "inhibition", "setting": "[18]", "result": 100, "unit": "%"},
      {"measurement": "inhibition", "setting": "[19]", "result": 100, "unit": "%"},
      {"measurement": "inhibition", "setting": "[20]", "result": 100, "unit": "%"},
      {"measurement": "inhibition", "setting": "[21]", "result": 100, "unit": "%"},
      {"measurement": "inhibition", "setting": "[22]", "result": 84, "unit": "%"},
      {"measurement": "residual activity", "setting": "[23]", "result": 50, "unit": "%"},
      {"measurement": "residual activity", "setting": "[24]", "result": 84, "unit": "%"},
      {"measurement": "residual activity", "setting": "[25]", "result": 72, "unit": "%"},
      {"measurement": "inhibition", "setting": "[26]", "result": 100, "unit": "%"},
      {"measurement": "inhibition", "setting": "[27]", "result": 94, "unit": "%"},
      {"measurement": "residual activity", "setting": "[28]", "result": 67, "unit": "%"},
      {"measurement": "residual activity", "setting": "[29]", "result": 73, "unit": "%"}
    ]}
  ]
}
